Tests used:
MalE-MalFGK2 complex = target: T1, MalE-MalFGK2 complex (Escherichia coli, UniProt P02916+P0AEX9+P68183+P68187, T177W/T57C); test: Maltose affinity of transporter-bound MalE (fluorescence quenching, competitive fit and equilibrium titration); type: binding, E. coli; conditions: sugar 1 mM added to preformed complex, AMP-PNP
T1 construct: made in house; host or cells: E. coli BL21
Procedure: After incubation (10 min, 37°C), samples were analyzed by CN-PAGE and (A) autoradiography or (B) Coomassie blue staining. […] At the indicated time (arrow), 1 mM maltooligosaccharides were added to the reaction mixture. […] After incubation (10 min, 37°C), samples were analyzed by CN-PAGE and autoradiography.
Fluorescence was recorded on a Cary Eclipse spectrofluorometer at 25°C. […] Excitation and emission wavelength were 280 nm and 350 nm, respectively (10 nm slit widths). […] The fluorescence emission was monitored over time and the signal was allowed to equilibrate after each addition for 180 s.
Competitive one-site ligand binding. […] The data (Fig. 2F, red curve) were fitted to a competitive one-site binding equation, defined as: [picture]

Nd-MalFGK2 [1] = target: T2, Nd-MalFGK2 (Escherichia coli, UniProt P02916+P68183+P68187); test: ATPase activity of MalFGK2 in nanodiscs; type: biochemical, E. coli
T2 construct: made in house; host or cells: E. coli BL21
T2 sequence (P68187 whole entry): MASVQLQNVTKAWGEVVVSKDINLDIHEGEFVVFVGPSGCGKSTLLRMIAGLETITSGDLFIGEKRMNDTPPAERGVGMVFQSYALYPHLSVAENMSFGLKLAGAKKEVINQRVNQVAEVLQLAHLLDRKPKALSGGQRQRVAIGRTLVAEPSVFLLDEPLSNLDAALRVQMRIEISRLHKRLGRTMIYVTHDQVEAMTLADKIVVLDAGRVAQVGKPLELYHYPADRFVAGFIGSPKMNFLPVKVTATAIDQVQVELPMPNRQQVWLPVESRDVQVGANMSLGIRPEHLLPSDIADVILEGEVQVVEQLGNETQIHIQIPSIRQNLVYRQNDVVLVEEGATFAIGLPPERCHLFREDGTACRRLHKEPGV
T2 sequence (P68183 whole entry): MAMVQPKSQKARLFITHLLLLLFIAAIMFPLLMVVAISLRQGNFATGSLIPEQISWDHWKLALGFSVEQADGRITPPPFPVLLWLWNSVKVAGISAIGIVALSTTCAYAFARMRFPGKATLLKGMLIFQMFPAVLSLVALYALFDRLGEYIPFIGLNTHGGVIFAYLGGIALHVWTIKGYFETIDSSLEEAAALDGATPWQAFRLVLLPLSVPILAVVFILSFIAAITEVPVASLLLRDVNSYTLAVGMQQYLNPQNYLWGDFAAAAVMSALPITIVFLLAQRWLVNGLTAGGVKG
T2 sequence (P02916 whole entry): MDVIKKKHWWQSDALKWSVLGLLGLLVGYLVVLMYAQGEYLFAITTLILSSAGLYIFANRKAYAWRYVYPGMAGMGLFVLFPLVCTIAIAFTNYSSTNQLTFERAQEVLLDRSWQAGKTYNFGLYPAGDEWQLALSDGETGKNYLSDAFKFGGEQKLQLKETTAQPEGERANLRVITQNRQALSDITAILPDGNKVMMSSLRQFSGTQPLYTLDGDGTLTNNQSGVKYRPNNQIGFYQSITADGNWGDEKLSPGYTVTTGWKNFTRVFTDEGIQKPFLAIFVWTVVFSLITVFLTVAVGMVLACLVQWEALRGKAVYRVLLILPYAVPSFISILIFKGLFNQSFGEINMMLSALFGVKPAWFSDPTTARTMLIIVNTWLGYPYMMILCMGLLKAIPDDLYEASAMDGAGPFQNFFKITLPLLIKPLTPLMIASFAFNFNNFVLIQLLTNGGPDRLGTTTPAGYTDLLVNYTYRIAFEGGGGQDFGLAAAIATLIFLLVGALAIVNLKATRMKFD
Procedure: Figure 1 ATPase activity of the MalFGK2 complex in nanodiscs. (A) The MalFGK2 complex in nanodisc (lane 1) and detergent solution (lane 2) was analyzed by BN-PAGE and CN-PAGE followed by Coomassie blue staining of the gel. Molecular weight markers: BSA (67/134 kDa); catalase (232 kDa); ferritin (440 kDa). On CN-PAGE, the MalFGK2 complex precipitates as a protein smear at the top of the gel. […] The reported values were derived from 3 independent experiments.
(§1) Samples were analyzed by CN-PAGE and autoradiography. […] After incubation (10 min, 37°C), samples were analyzed by CN-PAGE and autoradiography. […] The reported values were derived from 3 independent experiments.
(§2) The MalFGK2 ATPase activity was determined by monitoring the release of inorganic phosphate using photo-colorimetric method. Linear gradient blue-native (BN) and colorless-native (CN) gel electrophoresis was performed as described. Sucrose gradient analysis was performed as described. MalE was iodinated using the Iodogen reagent (Pierce-Thermo Scientific). The specific activity of [^125I]-MalE was ∼2×10^5 c.p.m./μg.

Nd-MalFGK2 [2] = target: T2, Nd-MalFGK2; test: Native-PAGE (CN-PAGE) binding of [125I]-MalE to Nd-MalFGK2; parameters: species or system E. coli; conditions: maltose 1 mM, AMP-PNP or ATP plus vanadate
Procedure: After incubation (10 min, 37°C), samples were analyzed by CN-PAGE followed by Coomassie blue staining (bottom part) and autoradiography (upper part). […] After incubation (10 min, 37°C), samples were analyzed by CN-PAGE followed by Coomassie blue staining (bottom part) then autoradiography (upper part). […] After incubation (10 min, 37°C), samples were analyzed by CN-PAGE and autoradiography. […] The position MalE-31 and MalF-177 are indicated in red. […] When the data were fitted to one-site binding equation, the dissociation constant in the presence of AMP-PNP was ∼79 nM.
as §1, §2

HisQM = tested on: HisQM; parameters: method as in PMID 8662800; conditions: cited from earlier work
BtuCD = conditions: cited from earlier work
[3] = read-out: Kd of BtuF for its ligand; cited from earlier work

T1 sequence (P68187 whole entry): as the sequence (P68187 whole entry) above
T1 sequence (P68183 whole entry): as the sequence (P68183 whole entry) above
T1 sequence (P02916 whole entry T177W): as the sequence (P02916 whole entry) above, with T177W counted along it

## OC[C@H]1O[C@H](O[C@H]2[C@H](O)[C@@H](O)C(O)O[C@@H]2CO)[C@H](O)[C@@H](O)[C@@H]1O (mixture of isomers) [maltose]
MalE-MalFGK2 complex
  dissociation of MalE from the transporter in nanodiscs: rapid loss of fluorescence quenching
Nd-MalFGK2 [1]; in disc and in detergent, maltose 1 mM, MalE 2 µM
  effect of maltose on MalE-stimulated ATPase activity: significant inhibition of the ATPase activity
Nd-MalFGK2 [1]; no MalE
  effect of maltose alone on basal ATPase activity: did not effect the basal ATPase activity
Nd-MalFGK2 [2]
  effect of maltose on binding of MalE to MalFGK2 on native-PAGE: significantly reduced

B1: HisJ: binding protein of histidine transport, binds HisQM (protein, UniProt P0AEU0 23-260, looked up)
Histidine-binding periplasmic …: AIPQNIRIGTDPTYAPFESKNSQGELVGFDIDLAKELCKRINTQCTFVENPLDALIPSLKAKKIDAIMSSLSITEKRQQEIAFTDKLYAADSRLVVAKNSDIQPTVESLKGKRVGVLQGTTQETFGNEHWAPKGIEIVSYQGQDNIYSDLTAGRIDAAFQDEVAASEGFLKQPVGKDYKFGGPSVKDEKLFGVGTGMGLRKEDNELREALNKAFAEMRADGTYEKLAKKYFDFDVYGG
HisQM
  reduction of binding of HisJ to HisQM by saturating histidine: 3 fold

B2: BtuF: substrate binding protein of the vitamin B12 transporter (protein, UniProt P37028 23-266, looked up)
Vitamin B12-binding protein: APRVITLSPANTELAFAAGITPVGVSSYSDYPPQAQKIEQVSTWQGMNLERIVALKPDLVIAWRGGNAERQVDQLASLGIKVMWVDATSIEQIANALRQLAPWSPQPDKAEQAAQSLLDQYAQLKAQYADKPKKRVFLQFGINPPFTSGKESIQNQVLEVCGGENIFKDSRVPWPQVSREQVLARSPQAIVITGGPDQIPKIKQYWGEQLKIPVIPLTSDWFERASPRIILAAQQLCNALSQVD
BtuCD
  reduction of the BtuF-BtuCD interaction by saturating vitamin B12: ~10^5 fold
[3]
  Kd: ~15 nM

Source: PMC3328499 (PLoS ONE, 2012)
